Reference: PubChem BioAssay (NCI)
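Results reflect a 48-hour exposure of cells in 96-well plates to compound at five concentrations. TGI denotes the concentration required for complete inhibition of growth.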

Legend:
Assay in all cases: DTP human tumour cell line panel, 48 h
NCI-H460 lung = system: NCI-H460 lung
OVCAR-8 ovarian = system: OVCAR-8 ovarian
MALME-3M melanoma = system: MALME-3M melanoma
EKVX NSCLC = system: EKVX NSCLC
MDA-N = system: MDA-N
NCI-H23 lung = system: NCI-H23 lung
SK-MEL-2 melanoma = system: SK-MEL-2 melanoma
NCI-H226 lung = system: NCI-H226 lung
MDA-MB-435 = system: MDA-MB-435
OVCAR-3 ovarian = system: OVCAR-3 ovarian
RXF 393 renal = system: RXF 393 renal
HT29 colon = system: HT29 colon
RPMI-8226 leukemia = system: RPMI-8226 leukemia
LOX IMVI melanoma = system: LOX IMVI melanoma
SW-620 colon = system: SW-620 colon
HCT-15 colon = system: HCT-15 colon
MDA-MB-231 breast = system: MDA-MB-231 breast
T-47D breast = system: T-47D breast
SK-MEL-5 melanoma = system: SK-MEL-5 melanoma
A498 renal = system: A498 renal
ACHN renal = system: ACHN renal
MCF7 breast = system: MCF7 breast
NCI-H522 lung = system: NCI-H522 lung
UACC-62 melanoma = system: UACC-62 melanoma
KM12 colon = system: KM12 colon
HCT-116 colon = system: HCT-116 colon
OVCAR-5 ovarian = system: OVCAR-5 ovarian
SN12C renal = system: SN12C renal
M14 melanoma = system: M14 melanoma
COLO 205 colon = system: COLO 205 colon
CAKI-1 renal = system: CAKI-1 renal
A549 NSCLC = system: A549 NSCLC
UACC-257 melanoma = system: UACC-257 melanoma
HL-60(TB) leukemia = system: HL-60(TB) leukemia
HOP-92 NSCLC = system: HOP-92 NSCLC
PC-3 prostate = system: PC-3 prostate
HCC-2998 colon = system: HCC-2998 colon
HOP-62 NSCLC = system: HOP-62 NSCLC
NCI/ADR-RES ovarian = system: NCI/ADR-RES ovarian
DU-145 prostate = system: DU-145 prostate
MOLT-4 leukemia = system: MOLT-4 leukemia
SNB-75 CNS = system: SNB-75 CNS
TK-10 renal = system: TK-10 renal
SF-295 CNS = system: SF-295 CNS
SNB-19 CNS = system: SNB-19 CNS
786-0 renal = system: 786-0 renal
IGROV1 ovarian = system: IGROV1 ovarian
SK-MEL-28 melanoma = system: SK-MEL-28 melanoma
OVCAR-4 ovarian = system: OVCAR-4 ovarian
BT-549 breast = system: BT-549 breast
UO-31 renal = system: UO-31 renal
K-562 leukemia = system: K-562 leukemia
U251 CNS = system: U251 CNS
SK-OV-3 ovarian = system: SK-OV-3 ovarian
CCRF-CEM leukemia = system: CCRF-CEM leukemia
SR leukemia = system: SR leukemia
HS 578T breast = system: HS 578T breast
SF-268 CNS = system: SF-268 CNS
SF-539 CNS = system: SF-539 CNS

Measured: TGI

FC1CCN(C2(c3cccs3)CCCCC2)CC1
not listed: CCRF-CEM leukemia | SR leukemia | HS 578T breast | SF-268 CNS | SF-539 CNS
> 100 µM: all other assays above

N#CSCC1COc2ccccc2O1 (stereo not drawn)
8.66 µM: HL-60(TB) leukemia
7.05 µM: NCI-H522 lung
8.3 µM: CCRF-CEM leukemia
not listed: UACC-257 melanoma | HOP-92 NSCLC | 786-0 renal | BT-549 breast
> 10 µM: all other assays above

C=CCN1CC2CN=NC2(C#N)C1 (stereo not drawn)
not listed: RPMI-8226 leukemia | M14 melanoma | HOP-92 NSCLC | SK-OV-3 ovarian | HS 578T breast | SF-539 CNS
> 100 µM: all other assays above

CC1=CC(=O)c2cccc(NC3=NCCO3)c21
90.5 µM: KM12 colon
86.2 µM: MDA-MB-435
82.5 µM: NCI/ADR-RES ovarian
87.2 µM: NCI-H226 lung
90.4 µM: OVCAR-3 ovarian
77.7 µM: HOP-92 NSCLC
41.2 µM: HL-60(TB) leukemia
91.6 µM: MALME-3M melanoma | SR leukemia
42.3 µM: SK-MEL-5 melanoma
not listed: OVCAR-8 ovarian | MCF7 breast | UACC-257 melanoma | BT-549 breast
> 100 µM: all other assays above

COc1cc(C/C=C/c2ccccc2)c(OC)cc1O
33 µM: HOP-92 NSCLC
39.7 µM: NCI-H460 lung
> 100 µM: A498 renal | A549 NSCLC | UACC-257 melanoma | SNB-19 CNS
58.4 µM: BT-549 breast
38.2 µM: U251 CNS
42.4 µM: MALME-3M melanoma
72 µM: NCI/ADR-RES ovarian
62.3 µM: SK-MEL-5 melanoma
34.5 µM: SN12C renal
59.9 µM: HL-60(TB) leukemia
37 µM: OVCAR-8 ovarian
30.5 µM: RPMI-8226 leukemia
46.4 µM: M14 melanoma
35.3 µM: T-47D breast | SK-MEL-28 melanoma
77.6 µM: SNB-75 CNS
31.4 µM: UO-31 renal
52.9 µM: MDA-MB-231 breast
43.3 µM: SW-620 colon
52.8 µM: MOLT-4 leukemia
33.3 µM: EKVX NSCLC
37.4 µM: LOX IMVI melanoma | HCC-2998 colon
59.4 µM: SF-268 CNS
42.8 µM: NCI-H23 lung
90 µM: HS 578T breast
65.7 µM: CAKI-1 renal
31.1 µM: HCT-116 colon
31.6 µM: K-562 leukemia
30.7 µM: KM12 colon
52.3 µM: SK-MEL-2 melanoma | CCRF-CEM leukemia
67.2 µM: PC-3 prostate
27.7 µM: 786-0 renal
52.7 µM: ACHN renal
51.3 µM: OVCAR-4 ovarian
51.1 µM: OVCAR-3 ovarian
37.6 µM: SF-539 CNS
40.9 µM: NCI-H522 lung
36.9 µM: MDA-MB-435
33.8 µM: MDA-N
37.2 µM: HCT-15 colon | IGROV1 ovarian
37.7 µM: UACC-62 melanoma
45.5 µM: COLO 205 colon
60.6 µM: OVCAR-5 ovarian
79.3 µM: NCI-H226 lung
37.8 µM: HT29 colon
37.3 µM: DU-145 prostate
38.6 µM: TK-10 renal

COC(=O)c1ccc(C)cc1C1CN=NC12Cc1cc(C)c(C)cc1C2=O (stereo not drawn)
93 µM: MOLT-4 leukemia
81.4 µM: MDA-MB-231 breast
96.6 µM: MDA-MB-435
78.4 µM: NCI-H522 lung
99.7 µM: EKVX NSCLC
81.7 µM: HCC-2998 colon
55.2 µM: HL-60(TB) leukemia
49.2 µM: SK-MEL-5 melanoma
not listed: SK-MEL-2 melanoma | T-47D breast | UACC-62 melanoma | COLO 205 colon | PC-3 prostate | BT-549 breast | SK-OV-3 ovarian
> 100 µM: all other assays above

Cc1cccc2c(N)c3cccc(C(=O)NCC[N+](C)(C)Cc4sc(N5CCOCC5)nc4[N+](=O)[O-])c3nc12
13.3 µM: HCT-15 colon
15.3 µM: NCI-H23 lung
16.4 µM: OVCAR-5 ovarian
45.3 µM: SK-MEL-2 melanoma
18.6 µM: UACC-62 melanoma
40.8 µM: BT-549 breast
14.3 µM: SF-295 CNS
14.4 µM: OVCAR-4 ovarian
26.9 µM: CCRF-CEM leukemia
3.41 µM: HCC-2998 colon
2.55 µM: A549 NSCLC
2.74 µM: HT29 colon
17.4 µM: OVCAR-8 ovarian | NCI-H226 lung
13.1 µM: MDA-MB-231 breast
14.6 µM: OVCAR-3 ovarian
3.78 µM: LOX IMVI melanoma
35.2 µM: MDA-MB-435
2.28 µM: ACHN renal
43 µM: UACC-257 melanoma
21.8 µM: MDA-N
20.8 µM: RXF 393 renal
24.7 µM: MALME-3M melanoma
10 µM: SF-539 CNS
4.54 µM: NCI-H522 lung
35.7 µM: UO-31 renal
7.77 µM: HOP-62 NSCLC
37.6 µM: TK-10 renal
37.3 µM: A498 renal
15 µM: M14 melanoma
22.7 µM: SNB-75 CNS
23.3 µM: NCI/ADR-RES ovarian
6.19 µM: SK-OV-3 ovarian
28.5 µM: HS 578T breast
4.64 µM: CAKI-1 renal
17.6 µM: KM12 colon
16.8 µM: PC-3 prostate
6.24 µM: 786-0 renal
13.5 µM: MCF7 breast
20.6 µM: HCT-116 colon
not listed: NCI-H460 lung | HL-60(TB) leukemia | SR leukemia
> 100 µM: all other assays above
